Measurements taken from patent publication US8580965B2, “Substituted sulfonamide compounds” (Gruenenthal GmbH, priority 2006, dated 2013).
Where a name gives a salt, the structure may show the parent alone.

How the values were obtained:
[1] = target: T1, B1R receptor of the rat (bradykinin 1 receptor) (Rattus norvegicus, UniProt P97583); assay: FLIPR Ca2+ assay (Fluo-4) on CHO K1 cells stably transfected with the B1R gene of the rat; % activation and % inhibition at 10 μM; format: cell-based; conditions: CHO K1 rB1R cells, Ca2+ inflow after 100 nM Des-Arg9-bradykinin; for inhibition at 10 µM: CHO-K1, test substance 10 μM, read-out: B1R antagonism, rat [10 μM] % inhibition
T1 construct: host or cells: CHO K1 cells (rB1R cells)
T1 sequence (P97583 1-337): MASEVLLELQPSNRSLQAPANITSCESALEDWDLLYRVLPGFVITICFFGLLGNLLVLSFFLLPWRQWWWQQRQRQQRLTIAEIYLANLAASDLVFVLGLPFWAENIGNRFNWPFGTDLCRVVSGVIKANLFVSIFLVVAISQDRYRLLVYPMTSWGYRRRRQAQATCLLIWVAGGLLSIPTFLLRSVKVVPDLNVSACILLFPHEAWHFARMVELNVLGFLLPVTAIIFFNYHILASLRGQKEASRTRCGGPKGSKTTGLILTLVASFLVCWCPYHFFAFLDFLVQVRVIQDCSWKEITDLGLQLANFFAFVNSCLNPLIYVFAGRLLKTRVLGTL
Summary of the method: (§1)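 Fluo-4 Ca2+ flux on FLIPR in stable hB1R or rB1R CHO K1 lines, two additions. Agonism: 10 µM compound versus 0.5 nM Lys-Des-Arg9-BK (human) or 100 nM Des-Arg9-BK (rat); antagonism: same agonists applied 10 min later, suppression expressed against maximum achievable inhibition.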

[2] = target: T2, human B1R receptor (bradykinin 1 receptor) (Homo sapiens, UniProt P46663); assay: FLIPR Ca2+ assay (Fluo-4) on CHO K1 cells stably transfected with the human B1R gene; % activation and % inhibition at 10 μM; format: cell-based; conditions: CHO K1 hB1R cells, Ca2+ inflow after 0.5 nM Lys-Des-Arg9-bradykinin; for inhibition at 10 µM: CHO-K1, test substance 10 μM, read-out: B1R antagonism, human [10 μM] % inhibition
T2 construct: host or cells: CHO K1 cells (hB1R cells)
T2 sequence (P46663 1-353): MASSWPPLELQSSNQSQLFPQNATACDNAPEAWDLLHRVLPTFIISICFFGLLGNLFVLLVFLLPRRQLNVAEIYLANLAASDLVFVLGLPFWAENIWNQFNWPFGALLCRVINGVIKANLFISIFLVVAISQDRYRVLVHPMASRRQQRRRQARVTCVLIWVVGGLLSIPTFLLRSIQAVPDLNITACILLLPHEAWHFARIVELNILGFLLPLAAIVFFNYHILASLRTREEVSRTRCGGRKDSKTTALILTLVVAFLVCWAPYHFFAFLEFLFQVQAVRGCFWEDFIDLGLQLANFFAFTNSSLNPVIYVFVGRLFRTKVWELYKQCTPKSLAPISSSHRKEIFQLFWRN
Summary of the method: as §1

[3] = test substance 10 μM, hydrochloride

`O=C(COC[C@@H]1Cc2ccccc2CN1S(=O)(=O)c1ccc(Cl)cc1Cl)N1CCC(O)(c2cccnc2)CC1` [Example 129, (S)-2-((2-(2,4-dichlorophenylsulfonyl)-1,2,3,4-tetrahydroisoquinolin-3-yl)methoxy)-1-(4-hydroxy-4-(pyridin-3-yl)piperidin-1-yl)ethanone] showed an inhibition at 10 µM [1] of 97.3% and an inhibition at 10 µM [2] of 103%.
In the case of `O=C(COCC1Cc2ccccc2N1S(=O)(=O)c1ccc(Cl)cc1Cl)N1CCC(O)(c2cccnc2)CC1` (centres unmarked) [Example 135, 2-((1-(2,4-dichlorophenylsulfonyl)indolin-2-yl)methoxy)-1-(4-hydroxy-4-(pyridin-3-yl)piperidin-1-yl)ethanone], the inhibition at 10 µM [1] is reported as 100% and the inhibition at 10 µM [2] is reported as 99.8%.
`COc1cc(C)c(S(=O)(=O)N2CCC(COCC(=O)N3CCC(O)(c4cccs4)CC3)C2)c(C)c1` (centres unmarked) [Example 267, 1-(4-hydroxy-4-(thiophen-2-yl)piperidin-1-yl)-2-((1-(4-methoxy-2,6-dimethylphenylsulfonyl)pyrrolidin-3-yl)methoxy)ethanone] was tested, and the inhibition at 10 µM [1] was 97.8% and the inhibition at 10 µM [2] was 90.6%.
`CN(CCOCC(=O)N1CCC(O)(c2cccnc2)CC1)S(=O)(=O)c1c(Cl)cc(Cl)cc1Cl` [Example 5, 2,4,6-trichloro-N-(2-(2-(4-hydroxy-4-(pyridin-3-yl)piperidin-1-yl)-2-oxoethoxy)ethyl)-N-methylphenylsulfonamide hydrochloride] was tested, and the “B1R antagonism, rat [10 μM] % inhibition” value [1, 3] was 95.11% and the “B1R antagonism, human [10 μM] % inhibition” value [2, 3] was 101.04%.
`COc1cc(C)c(S(=O)(=O)N(CCOCC(=O)N2CCC(O)(c3cccc(C(F)(F)F)c3)CC2)CC(C)C)c(C)c1C` [Example 212, N-(2-(2-(4-hydroxy-4-(3-(trifluoromethyl)phenyl)piperidin-1-yl)-2-oxoethoxy)ethyl)-N-isobutyl-4-methoxy-2,3,6-trimethylphenylsulfonamide] showed an inhibition at 10 µM [1] of 100% and an inhibition at 10 µM [2] of 105%.
For `O=C(COCC1CCCN1S(=O)(=O)c1cc(Cl)sc1Cl)N1CCC(O)(c2cccs2)CC1` (centres unmarked) [Example 266, 2-((1-(2,5-dichlorothiophen-3-ylsulfonyl)pyrrolidin-2-yl)methoxy)-1-(4-hydroxy-4-(thiophen-2-yl)piperidin-1-yl)ethanone], the inhibition at 10 µM [1] was 78.6% and the inhibition at 10 µM [2] was 21.9%.
`Cc1ccc(S(=O)(=O)N2CCC(OCC(=O)N3CCC(O)(Cc4ccccc4)CC3)C2)cc1` (centres unmarked) [Example 24, 1-(4-benzyl-4-hydroxy-piperidin-1-yl)-2-[1-(toluene-4-sulfonyl)-pyrrolidin-3-yloxy]-ethanone] showed an inhibition at 10 µM [1] of 6.88% and an inhibition at 10 µM [2] of 12.1%.
In the case of `COc1cc(C)c(S(=O)(=O)N2CCC(COCC(=O)N3CCC(O)(c4cccnc4)CC3)C2)c(C)c1` (centres unmarked) [Example 194, 1-(4-hydroxy-4-(pyridin-3-yl)piperidin-1-yl)-2-((1-(4-methoxy-2,6-dimethylphenylsulfonyl)pyrrolidin-3-yl)methoxy)ethanone], the inhibition at 10 µM [1] is reported as 82.8% and the inhibition at 10 µM [2] is reported as 104%.
Compound `CN(CCOCC(=O)N1CCC(O)(c2cccnc2)CC1)S(=O)(=O)c1c(Cl)cc(Cl)cc1Cl` [Example 2, 2,4,6-trichloro-N-{2-[2-(4′-hydroxy-3′,4′,5′,6′-tetrahydro-2′H-[3,4′]bipyridinyl-1′-yl)-2-oxo-ethoxy]-ethyl}-N-methyl-phenylsulfonamide] has an inhibition at 10 µM [1] of 103% and an inhibition at 10 µM [2] of 104%.
Compound `COc1cc(C)c(S(=O)(=O)N2CCC(OCC(=O)N3CCC(O)(Cc4ccccc4)CC3)C2)c(C)c1C` (centres unmarked) [Example 7, 1-(4-benzyl-4-hydroxy-piperidin-1-yl)-2-[1-(4-methoxy-2,3,6-trimethyl-phenylsulfonyl)-pyrrolidin-3-yloxy]-ethanone] has an inhibition at 10 µM [1] of 35.2% and an inhibition at 10 µM [2] of 99.8%.
In the case of `COc1ccc(S(=O)(=O)N2Cc3ccccc3CC2COCC(=O)N2CCC(O)(c3ccccn3)CC2)cc1` (centres unmarked) [Example 50, 1-(4′-hydroxy-3′,4′,5′,6′-tetrahydro-2′H-[2,4′]bipyridinyl-1′-yl)-2-[2-(4-methoxy-phenylsulfonyl)-1,2,3,4-tetrahydro-isoquinolin-3-ylmethoxy]-ethanone], the inhibition at 10 µM [1] is reported as 47.5% and the inhibition at 10 µM [2] is reported as -9.09%.
With `COc1ccc(S(=O)(=O)N2Cc3ccccc3C[C@H]2COCC(=O)N2CCC(O)(c3cccnc3)CC2)cc1` [Example 134, (S)-1-(4-hydroxy-4-(pyridin-3-yl)piperidin-1-yl)-2-((2-(4-methoxyphenylsulfonyl)-1,2,3,4-tetrahydroisoquinolin-3-yl)methoxy)ethanone] the inhibition at 10 µM [1] was 29.1% and the inhibition at 10 µM [2] was 66%.
In the case of `O=C(COC1CCN(S(=O)(=O)c2c(Cl)cc(Cl)cc2Cl)C1)N1CCC(O)(c2ccccc2)CC1` (centres unmarked) [Example 108, 1-(4-hydroxy-4-phenylpiperidin-1-yl)-2-(1-(2,4,6-trichlorophenylsulfonyl)pyrrolidin-3-yloxy)ethanone], the inhibition at 10 µM [1] is reported as 54.5% and the inhibition at 10 µM [2] is reported as 54.8%.
`O=C(COCC1CCCN1S(=O)(=O)c1c(Cl)cccc1Cl)N1CCC(O)(c2cccc(C(F)(F)F)c2)CC1` (centres unmarked) [Example 222, 2-((1-(2,6-dichlorophenylsulfonyl)pyrrolidin-2-yl)methoxy)-1-(4-hydroxy-4-(3-(trifluoromethyl)phenyl)piperidin-1-yl)ethanone] gave an inhibition at 10 µM [1] of 103% and an inhibition at 10 µM [2] of 102%.
In the case of `O=C(COCCN1CCN(S(=O)(=O)c2ccccc2)CC1)N1CCC(O)(c2ccncc2)CC1` [Example 49, 2-[2-(4-phenylsulfonyl-piperazin-1-yl)-ethoxy]-1-(4-hydroxy-3,4,5,6-tetrahydro-2H-[4,4′]bipyridinyl-1-yl)-ethanone], the inhibition at 10 µM [1] is reported as 7.14% and the inhibition at 10 µM [2] is reported as -5.73%.
`COc1cc(C)c(S(=O)(=O)N(CCOCC(=O)N2CCC(O)(c3ccc(Cl)c(C(F)(F)F)c3)CC2)CC2CC2)c(C)c1C` [Example 237, N-(2-(2-(4-(4-chloro-3-(trifluoromethyl)phenyl)-4-hydroxypiperidin-1-yl)-2-oxoethoxy)ethyl)-N-(cyclopropylmethyl)-4-methoxy-2,3,6-trimethylphenyl-sulfonamide] was tested, and the inhibition at 10 µM [1] was 100% and the inhibition at 10 µM [2] was 103%.
`Cc1cc(S(=O)(=O)N(C)CCCC(=O)N2CCC(O)(c3cccnc3)CC2)c(C)cc1Cl` [Example 113, 4-chloro-N-(4-(4-hydroxy-4-(pyridin-3-yl)piperidin-1-yl)-4-oxobutyl)-N,2,5-trimethylphenylsulfonamide hydrochloride] showed an inhibition at 10 µM [1] of 51.1% and an inhibition at 10 µM [2] of 94.8%.
`Cc1ccc2ccccc2c1S(=O)(=O)N(C)CCOCC(=O)N1CCC(O)(c2cccnc2)CC1` [Example 148, N-(2-(2-(4-hydroxy-4-(pyridin-3-yl)piperidin-1-yl)-2-oxoethoxy)ethyl)-N,2-dimethylnaphthalene-1-sulfonamide] gave an inhibition at 10 µM [1] of 99% and an inhibition at 10 µM [2] of 100%.
`O=C(COCC1CCCCN1S(=O)(=O)c1ccccc1C(F)(F)F)N1CCC(O)(c2ccc(Cl)cc2)CC1` (centres unmarked) [Example 173, 1-(4-(4-chlorophenyl)-4-hydroxypiperidin-1-yl)-2-((1-(2-(trifluoromethyl)phenylsulfonyl)piperidin-2-yl)methoxy)ethanone] showed an inhibition at 10 µM [1] of 104% and an inhibition at 10 µM [2] of 103%.
Work on `O=C(CCC1CCCCN1S(=O)(=O)c1ccc(Cl)cc1Cl)N1CCC(O)(c2cccnc2)CC1` (centres unmarked) [Example 118, 3-(1-(2,4-dichlorophenylsulfonyl)piperidin-2-yl)-1-(4-hydroxy-4-(pyridin-3-yl)piperidin-1-yl)propan-1-one] yielded an inhibition at 10 µM [1] of 97.9% and an inhibition at 10 µM [2] of 101%.
In the case of `O=C(COC1CCN(S(=O)(=O)c2c(Cl)cc(Cl)cc2Cl)C1)N1CCC(O)(c2ccc(Cl)cc2)CC1` (centres unmarked) [Example 107, 1-(4-(4-chlorophenyl)-4-hydroxypiperidin-1-yl)-2-(1-(2,4,6-trichlorophenylsulfonyl)pyrrolidin-3-yloxy)ethanone], the inhibition at 10 µM [1] is reported as 71.9% and the inhibition at 10 µM [2] is reported as 75.5%.
Work on `O=C(COCC1CCCN1S(=O)(=O)c1c(Cl)cc(C(F)(F)F)cc1Cl)N1CCC(O)(c2ccc(Cl)cc2)CC1` (centres unmarked) [Example 166, 1-(4-(4-chlorophenyl)-4-hydroxypiperidin-1-yl)-2-((1-(2,6-dichloro-4-(trifluoromethyl)phenylsulfonyl)pyrrolidin-2-yl)methoxy)ethanone] yielded an inhibition at 10 µM [1] of 104% and an inhibition at 10 µM [2] of 58.5%.
